In PubChem BioAssay AID1919000 (Molecular Pharmacology Branch, DTP, NCI, 2023):
Values joined by “and” are separate entries in the source; they are usually repeats but may differ in a detail not shown here. Equal values may be shown once.

Test system: 653999-131-R-J2-PDC complex spheroids, growth % test/control
Assay: Anticancer human tumor 653999-131-R-J2-PDC patient-derived lung adenocarcinoma cell line growth inhibition [AhR]
Settings: for viability, T/C: stronger effect = lower value
From the text: Multicellular complex tumor spheroid response to aryl hydrocarbon receptor antagonists in combination with a variety of drugs and investigational agents in selected tumor cell lines
The current study was undertaken to assess response to aryl hydrocarbon receptor antagonists in combination with standard-of-care drugs and investigational agents in solid tumor complex spheroid models. Complex spheroids include a stromal component modeled by human endothelial cells (HUVEC) and fibroblasts modeled by human mesenchymal stem cells (MSCs). The concentration ranges selected for each drug and investigational agent were based upon clinically achievable concentrations if the clinical Cmax of the agent was known.
Compounds. The drugs and investigational agents: BAY 2416964 (NSC825713), GNF351 (NSC835774), CH-223191 (NSC835775), CPI-455 (NSC825282), aza-TdCyd (NSC777586), decitabine (NSC127716), belinostat (NSC758774), entinostat (NSC756642), pevonedistat (NSC761192), tazemetostat (NSC777109), talazoparib (NSC765396), olaparib (NSC753686), selinexor (NSC780203), nedisertib (M3814, NSC802822), bortezomib (NSC756655), venetoclax (NSC766270), doxorubicin (NSC123127), elimusertib (BAY189344, NSC800525), ceralasertib (AZD6738, NSC777638), TAK-243 (NSC785004), alisertib (NSC759677), etoposide (NSC141540), topotecan (NSC609699), eribulin (NSC707389), gemcitabine (NSC613327), carboplatin (NSC241240), cisplatin (NSC119875), and SN-38 (NSC673596) were obtained from the National Cancer Institute (NCI) Developmental Therapeutics Program Chemical Repository (32). The FDA-approved anticancer drug set is available from the Developmental Therapeutics Program at https://dtp.cancer.gov/organization/dscb/obtaining/available plates.htm. […] The stock solutions were prepared in dimethyl sulfoxide (DMSO, Sigma-Aldrich, St. Louis, MO, cat. D2650), except for the platinum compounds which were prepared in saline (Quality Biological, Gaithersburg, MD, cat. 114-055-101), at 800-fold the tested concentration and stored at -70 degrees C prior to their use. All drugs and investigational agents were tested over a range starting from a high concentration at or near the clinical Cmax and decreasing in half-log increments. If the clinical Cmax for an agent had not been determined, the highest concentration tested was 10 microM (Table 1).
Cell Culture. All cells were maintained in an incubator at 37 degrees C and 5% CO2 with 95% humidity. The PDC lines were cultured according to standard operating procedures established by the NCI PDMR (https://pdmr.cancer.gov). Briefly, all PDCs were thawed and cultured in Matrigel-coated flasks prepared with a working solution of 1X Ham's F-12 nutrient mix, without supplementation (Invitrogen, Waltham, MA, cat. 11765054), 100 U/mL penicillin-streptomycin (Invitrogen, cat. 15140122), and 2.5% Matrigel (Corning Inc., Corning, NY, cat. 354248) for the first three passages. All PDCs were cultured in complete DMEM/F-12 media containing advanced DMEM/F-12 (Invitrogen, cat. 12634028), 4.9% defined fetal bovine serum, heat inactivated (HyClone Laboratories Inc., Logan, UT, cat. SH30070.03HI), 389 ng/mL hydrocortisone (Sigma-Aldrich, cat. H4001), 9.7 ng/mL human EGF recombinant protein (Invitrogen, cat. PHG0313), 23.4 microg/mL adenine (Sigma-Aldrich, cat. A2786), 97.3 U/mL penicillin-streptomycin (Invitrogen, cat. 15140122), 1.9 mM L-glutamine (Invitrogen, cat. 25030081), and 9.7 microM Y-27632 dihydrochloride (Tocris Bioscience, Bristol, United Kingdom, cat. 1254). The PDCs were cultured in complete DMEM/F12 media without 10 microM Y-27632 dihydrochloride for at least two passages prior to the screen. The established cell lines NCI-H1341 and […] were cultured in DMEM/F-12, HEPES (Invitrogen, cat. 11330032), 5% defined fetal bovine serum (HyClone Laboratories Inc., cat. SH30070.03), ITS premix universal culture supplement [insulin (5 microg/mL), transferrin (5 microg/mL), and selenious acid (5 ng/mL)] […]
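Further: spheroids exposed to agents for seven days.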

**Q.** Cn1ncnc1C1c2n[nH]c(=O)c3cc(F)cc(c23)NC1c1ccc(F)cc1 (centres undefined) was tested. Which viability, T/C (compound 0.000316 µM) did it give?
**A.** 94.2% and 105% and 97.9%

**Q.** What about the viability, T/C (compound 0.001 µM) of the same compound?
**A.** 106% and 102% and 107%

**Q.** What about the viability, T/C (compound 0.00316 µM) of the same compound?
**A.** 102% and 103% and 116%

**Q.** What about the viability, T/C (compound 0.01 µM) of the same compound?
**A.** 91.6% and 96% and 101%

**Q.** What about the viability, T/C (compound 0.0316 µM) of the same compound?
**A.** 94.2% and 95.2% and 105%

**Q.** And the viability, T/C (compound 0.1 µM)?
**A.** 95.5% and 91.8% and 103%

**Q.** And the IC50 (curve of compound)?
**A.** > 0.1 µM

**Q.** CC1COCCN1c1cc(C2(S(C)(=N)=O)CC2)nc(-c2ccnc3[nH]ccc23)n1 (centres undefined) + CC(CO)NC(=O)c1cc(-c2ccc(Cl)cc2)nn(-c2cnn(C)c2)c1=O was tested. Which IC50 (curve of first compound, second compound 0.1 µM) did it give?
**A.** 8.97 µM

**Q.** And the IC50 (curve of first compound, second compound 0.316 µM)?
**A.** > 10 µM

**Q.** And the IC50 (curve of first compound, second compound 1 µM)?
**A.** > 10 µM

**Q.** What about the IC50 (curve of first compound, second compound 3.16 µM) of the same compound?
**A.** 7.88 µM

**Q.** What about the IC50 (curve of first compound, second compound 10 µM) of the same compound?
**A.** 3.94 µM

**Q.** What about the viability, T/C (second compound 0.1 µM, first compound 0.0316 µM) of the same compound?
**A.** 102%

**Q.** What about the viability, T/C (second compound 0.1 µM, first compound 0.1 µM) of the same compound?
**A.** 97.6%

**Q.** And the viability, T/C (second compound 0.1 µM, first compound 0.316 µM)?
**A.** 97.8%

**Q.** And the viability, T/C (second compound 0.1 µM, first compound 1 µM)?
**A.** 87.3%

**Q.** And the viability, T/C (second compound 0.1 µM, first compound 3.16 µM)?
**A.** 75.2%

**Q.** What about the viability, T/C (second compound 0.1 µM, first compound 10 µM) of the same compound?
**A.** 47.1%

**Q.** And the viability, T/C (second compound 0.316 µM, first compound 0.0316 µM)?
**A.** 101%

**Q.** And the viability, T/C (second compound 0.316 µM, first compound 0.1 µM)?
**A.** 95.6%

**Q.** And the viability, T/C (second compound 0.316 µM, first compound 0.316 µM)?
**A.** 103%

**Q.** And the viability, T/C (second compound 0.316 µM, first compound 1 µM)?
**A.** 83.3%

**Q.** And the viability, T/C (second compound 0.316 µM, first compound 3.16 µM)?
**A.** 71.3%

**Q.** What about the viability, T/C (second compound 0.316 µM, first compound 10 µM) of the same compound?
**A.** 52.6%

**Q.** What about the viability, T/C (second compound 1 µM, first compound 0.0316 µM) of the same compound?
**A.** 101%

**Q.** And the viability, T/C (second compound 1 µM, first compound 0.1 µM)?
**A.** 95.4%

**Q.** And the viability, T/C (second compound 1 µM, first compound 0.316 µM)?
**A.** 101%

**Q.** What about the viability, T/C (second compound 1 µM, first compound 1 µM) of the same compound?
**A.** 91%

**Q.** And the viability, T/C (second compound 1 µM, first compound 3.16 µM)?
**A.** 73.9%

**Q.** And the viability, T/C (second compound 1 µM, first compound 10 µM)?
**A.** 51.5%

**Q.** And the viability, T/C (second compound 3.16 µM, first compound 0.0316 µM)?
**A.** 92.7%

**Q.** And the viability, T/C (second compound 3.16 µM, first compound 0.1 µM)?
**A.** 107%

**Q.** What about the viability, T/C (second compound 3.16 µM, first compound 0.316 µM) of the same compound?
**A.** 100%

**Q.** And the viability, T/C (second compound 3.16 µM, first compound 1 µM)?
**A.** 88.8%

**Q.** And the viability, T/C (second compound 3.16 µM, first compound 3.16 µM)?
**A.** 55.6%

**Q.** And the viability, T/C (second compound 3.16 µM, first compound 10 µM)?
**A.** 48.5%

**Q.** What about the viability, T/C (second compound 10 µM, first compound 0.0316 µM) of the same compound?
**A.** 111%

**Q.** And the viability, T/C (second compound 10 µM, first compound 0.1 µM)?
**A.** 98.5%

**Q.** What about the viability, T/C (second compound 10 µM, first compound 0.316 µM) of the same compound?
**A.** 100%

**Q.** And the viability, T/C (second compound 10 µM, first compound 1 µM)?
**A.** 78%

**Q.** What about the viability, T/C (second compound 10 µM, first compound 3.16 µM) of the same compound?
**A.** 51.5%

**Q.** What about the viability, T/C (second compound 10 µM, first compound 10 µM) of the same compound?
**A.** 41.8%

**Q.** With CC[C@@]1(O)C(=O)OCc2c1cc1n(c2=O)Cc2cc3c(CN(C)C)c(O)ccc3nc2-1 as the compound, how does the viability, T/C (compound 0.000316 µM) read?
**A.** 118% and 95.5% and 101%

**Q.** And the viability, T/C (compound 0.001 µM)?
**A.** 100% and 95.1% and 108%

**Q.** And the viability, T/C (compound 0.00316 µM)?
**A.** 91.8% and 99.8% and 102%

**Q.** And the viability, T/C (compound 0.01 µM)?
**A.** 80.7% and 79.8% and 91.8%

**Q.** And the viability, T/C (compound 0.0316 µM)?
**A.** 69.5% and 61.3% and 63.9%

**Q.** What about the viability, T/C (compound 0.1 µM) of the same compound?
**A.** 44.3% and 36.5% and 48%

**Q.** What about the IC50 (curve of compound) of the same compound?
**A.** 0.0848 µM and 0.0518 µM and 0.0866 µM
